Measured values published in ChEMBL document CHEMBL5537206 (J Med Chem, 2024).
Active and inactive are the calls of the source. The calls are words filed in the database; no cut-off is given here.

How the values were obtained:
[1] = tested on: Osimertinib-resistant NCI-H1975 cell; test: Antiproliferative activity against human Osimertinib-resistant NCI-H1975 cell (AZDR) incubated for 72 hrs by MTT assay; format: functional, cell-based
NCI-H1975 = test: Antiproliferative activity against human NCI-H1975 cells incubated for 72 hrs by MTT assay; format: functional, cell-based; conditions: NCI-H1975, 72 h
MCF7 = test: Antiproliferative activity against human MCF7 cells incubated for 72 hrs by MTT assay; format: functional, cell-based; conditions: MCF7, 72 h
[2] = tested on: Osimertinib-resistant NCI-H1975 cell; test: Induction of apoptosis in human Osimertinib-resistant NCI-H1975 cell (AZDR) assessed as early apoptotic cells at 1 uM incubated for 24 hrs by Annexin V and propidium iodide staining based flow cytometry analysis (reference value: 3.38%); format: functional
[3] = tested on: Osimertinib-resistant NCI-H1975 cell; test: Induction of apoptosis in human Osimertinib-resistant NCI-H1975 cell (AZDR) assessed as late apoptotic cells at 1 uM incubated for 24 hrs by Annexin V and propidium iodide staining based flow cytometry analysis (reference value: 1.06%); format: functional
[4] = tested on: Osimertinib-resistant NCI-H1975 cell; test: Induction of apoptosis in human Osimertinib-resistant NCI-H1975 cell (AZDR) assessed as early apoptotic cells at 1 uM incubated for 24 hrs in presence of osimertinib by Annexin V and propidium iodide staining based flow cytometry analysis (reference value: 3.38%); format: functional
[5] = tested on: Osimertinib-resistant NCI-H1975 cell; test: Induction of apoptosis in human Osimertinib-resistant NCI-H1975 cell (AZDR) assessed as late apoptotic cells at 1 uM incubated for 24 hrs in presence of osimertinib by Annexin V and propidium iodide staining based flow cytometry analysis (reference value: 1.06%); format: functional
Mus musculus [6] = test: In vivo inhibition of EGFR L858R/T790M mutant in BALB/c nude mouse xenografted with human Osimertinib-resistant NCI-H1975 cell (AZDR) assessed as downregulation of EGFR phosphorylation at 10 mg/kg, po measured after 22 days; format: functional, organism-based; conditions: time 22.0 day
Mus musculus [7] = test: In vivo inhibition of EGFR L858R/T790M mutant in BALB/c nude mouse xenografted with human Osimertinib-resistant NCI-H1975 cell (AZDR) assessed as downregulation of AKT phosphorylation at 10 mg/kg, po measured after 22 days; format: functional, organism-based; conditions: time 22.0 day
Mus musculus [8] = test: In vivo inhibition of ACK1 in BALB/c nude mouse xenografted with human Osimertinib-resistant NCI-H1975 cell (AZDR) assessed as downregulation of ACK1 phosphorylation at 10 mg/kg, po measured after 22 days; format: functional, organism-based; conditions: time 22.0 day
[9] = tested on: Osimertinib-resistant NCI-H1975 cell; test: Anticancer activity against human Osimertinib-resistant NCI-H1975 cell (AZDR) xenografted in BALB/c nude mouse model assessed as increase in tumor cell apoptosis at 10 mg/kg, po by TUNEL assay; format: functional, organism-based
[10] = tested on: Osimertinib-resistant NCI-H1975 cell; test: Anticancer activity against human Osimertinib-resistant NCI-H1975 cell (AZDR) xenografted in BALB/c nude mouse model assessed as increase tumor cell apoptosis at 10 mg/kg, po in presence of osimertinib by TUNEL assay; format: functional, organism-based
[11] = tested on: Osimertinib-resistant NCI-H1975 cell; test: Induction of apoptosis in human Osimertinib-resistant NCI-H1975 cell (AZDR) assessed as early apoptotic cells at 1 uM incubated for 24 hrs in presence of dasatinib by Annexin V and propidium iodide staining based flow cytometry analysis (reference value: 3.38%); format: functional
[12] = tested on: Osimertinib-resistant NCI-H1975 cell; test: Induction of apoptosis in human Osimertinib-resistant NCI-H1975 cell (AZDR) assessed as late apoptotic cells at 1 uM incubated for 24 hrs in presence of dasatinib by Annexin V and propidium iodide staining based flow cytometry analysis (reference value: 1.06%); format: functional
[13] = tested on: Osimertinib-resistant NCI-H1975 cell; test: Anticancer activity against human Osimertinib-resistant NCI-H1975 cell (AZDR) xenografted in BALB/c nude mouse model assessed as increase in tumor cell apoptosis at 10 mg/kg, po in presence of dasatinib by TUNEL assay; format: functional, organism-based

| SMILES | IC50 [1] [µM] | IC50 (NCI-H1975) [µM] | IC50 (MCF7) [µM] | other results |
| --- | --- | --- | --- | --- |
| C=CC(=O)Nc1cccc(Nc2nc(Nc3cccc(Br)c3)nc3ccc(Cl)cc23)c1 | 2.8 | 2.94 | 3.58 | – |
| C=CC(=O)Nc1cccc(Nc2nc(Nc3ccc(-n4cccn4)cc3)nc3ccc(Cl)cc23)c1 | 5.84 | 1.51 | 4.78 | – |
| C=CC(=O)Nc1cccc(Nc2nc(Nc3cnn(C4CCOCC4)c3)nc3ccc(Cl)cc23)c1 | 3.72 | 1.4 | 2.91 | – |
| C=CC(=O)Nc1cccc(Nc2nc(Nc3cn(CC)nc3C)nc3ccc(Cl)cc23)c1 | 2.14 | > 20 | 10.8 | – |
| C=CC(=O)Nc1cccc(Nc2nc(Nc3cnn(C)c3)nc3c(Cl)cccc23)c1 | > 20 | 2.21 | 1.72 | – |
| C=CC(=O)Nc1cccc(Nc2nc(Nc3cn(C)nc3C)nc3ccc(Cl)cc23)c1 | > 20 | 4.05 | 15 | – |
| C=CC(=O)Nc1cccc(Nc2nc(Nc3cnn(C)c3)nc3cccc(F)c23)c1 | 3.44 | 1.06 | 9.16 | – |
| C=CC(=O)Nc1cccc(Nc2nc(Nc3ccccc3C)nc3ccc(Cl)cc23)c1 | 7.31 | 6.58 | 8.26 | – |
| C=CC(=O)Nc1cccc(Nc2nc(Nc3cnn(C)c3)nc3ccc(C)cc23)c1 | 2.51 | 1.86 | 1.24 | – |
| C=CC(=O)Nc1cccc(Nc2nc(Nc3cnn(C)c3)nc3ccc(F)cc23)c1 | 1.52 | 8.76 | 2.36 | – |
| C=CC(=O)Nc1cccc(Nc2nc(Nc3cnn(C(C)(C)C)c3)nc3ccc(Cl)cc23)c1 | 3.94 | 2.1 | 5.64 | – |
| C=CC(=O)Nc1cccc(Nc2nc(Nc3cnn(CC(F)(F)F)c3)nc3ccc(Cl)cc23)c1 | 3.55 | 2.15 | 6.83 | – |
| C=CC(=O)Nc1cccc(Nc2nc(Nc3cnn(C)c3)nc3cc(Cl)ccc23)c1 | 13.8 | 15 | 2.95 | – |
| C=CC(=O)Nc1cccc(Nc2nc(Nc3cccc(C)c3)nc3ccc(Cl)cc23)c1 | 4.77 | 2.68 | 7.73 | – |
| C=CC(=O)Nc1cccc(Nc2nc(Nc3cnn(C)c3C)nc3ccc(Cl)cc23)c1 | 3.4 | 1.02 | 3.24 | – |
| C=CC(=O)Nc1cccc(Nc2nc(Nc3cnn(C)c3)nc3ccccc23)c1 | 2.81 | 0.94 | 4.6 | – |
| Cc1nc(Nc2ncc(C(=O)Nc3c(C)cccc3Cl)s2)cc(N2CCN(CCO)CC2)n1 [DASATINIB ANHYDROUS] | – | – | – | Activity [2]: 10.2%; Activity [3]: 7.4%; Activity [4]: 19.6%; Activity [5]: 20.6%; inhibition (Mus musculus [6]): Active; inhibition (Mus musculus [7]): inactive; inhibition (Mus musculus [8]): Active; Activity [9]: inactive; Activity [10]: Active |
| C=CC(=O)Nc1cccc(Nc2nc(Nc3ccnn3C)nc3ccc(Cl)cc23)c1 | 9.47 | 4.25 | 6.89 | – |
| C=CC(=O)Nc1cccc(Nc2nc(Nc3cnn(-c4ccccc4)c3)nc3ccc(Cl)cc23)c1 | 8.13 | 10.1 | 15.2 | – |
| C=CC(=O)Nc1cccc(Nc2nc(Nc3cnn(C)c3)nc3cc(C(F)(F)F)ccc23)c1 | 2.62 | 1.3 | 1.16 | – |
| C=CC(=O)Nc1cccc(Nc2nc(Nc3cnn(C)c3)nc3ccc(C(F)(F)F)cc23)c1 | 2.75 | 1.56 | 18.2 | – |
| C=CC(=O)Nc1cccc(Nc2nc(Nc3cnn(C)c3)nc3ccc(I)cc23)c1 | 0.98 | 0.75 | 1.84 | – |
| CCC(=O)Nc1cccc(Nc2nc(Nc3cnn(C)c3)nc3ccc(Cl)cc23)c1 | 9.58 | 6.35 | 4.68 | – |

| SMILES | IC50 [1] [µM] | IC50 (NCI-H1975) [µM] | IC50 (MCF7) [µM] | other results |
| --- | --- | --- | --- | --- |
| C=CC(=O)Nc1cccc(Nc2nc(Nc3cnn(C)c3)nc3c(F)cccc23)c1 | 3.34 | 2.11 | 3.74 | – |
| C=CC(=O)Nc1cccc(Nc2nc(NCCn3cccn3)nc3ccc(Cl)cc23)c1 | 22.8 | 10.1 | 13.7 | – |
| C=CC(=O)Nc1cccc(Nc2nc(Nc3ccc(N(C)CCN(C)C)cc3)nc3ccc(Cl)cc23)c1 | 1.89 | 1.24 | 2.53 | – |
| C=CC(=O)Nc1cccc(Nc2nc(Nc3cnn(C)c3)nc3cc(F)ccc23)c1 | 17.7 | 1.28 | 11.1 | – |
| C=CC(=O)Nc1cccc(Nc2nc(Nc3cnn(CCOC)c3)nc3ccc(Cl)cc23)c1 | 3.71 | 3.18 | 6.56 | – |
| C=CC(=O)Nc1cccc(Nc2nc(Nc3ccn(C)n3)nc3ccc(Cl)cc23)c1 | 3.55 | 1.37 | 12.4 | – |
| C=CC(=O)Nc1cccc(Nc2nc(Nc3cnn(CCN4CCOCC4)c3)nc3ccc(Cl)cc23)c1 | 3.45 | 1.7 | 8.78 | – |
| C=CC(=O)Nc1cccc(Nc2nc(Nc3cnn(C)c3)nc3cccc(Cl)c23)c1 | 2.44 | 0.81 | 1.85 | – |
| C=CC(=O)Nc1cccc(Nc2nc(Nc3cnn(C)c3)nc3ccc(OC)cc23)c1 | 4.64 | 1.52 | 2.2 | – |
| C=CC(=O)Nc1cccc(Nc2nc(Nc3cc(C(F)(F)F)n(C)n3)nc3ccc(Cl)cc23)c1 | 3.45 | 2.36 | 10 | – |
| C=CC(=O)Nc1cccc(Nc2nc(Nc3cnn(C)c3)nc3cc(OC)ccc23)c1 | 2.5 | 1.38 | 1.34 | – |
| C=CC(=O)Nc1cccc(Nc2nc(Nc3cnn(C)c3)nc3cc(C)ccc23)c1 | 3.34 | 1.59 | 0.52 | – |
| C=CC(=O)Nc1cccc(Nc2nc(Nc3ccc(C)cc3)nc3ccc(Cl)cc23)c1 | 6.56 | 2.29 | 4.24 | – |
| C=CC(=O)Nc1cccc(Nc2nc(Nc3c(C)nn(C)c3C)nc3ccc(Cl)cc23)c1 | 1.62 | 2.89 | 4.4 | – |
| C=CC(=O)Nc1cccc(Nc2nc(Nc3cnn(C)c3)nc3ccc(Cl)cc23)c1 | 1.04 | 0.95 | 1.23 | – |
| C=CC(=O)Nc1ccccc1Nc1nc(Nc2cnn(C)c2)nc2ccc(Cl)cc12 | 6.53 | 5.63 | 4.26 | – |
| C=CC(=O)Nc1ccc(Nc2nc(Nc3cnn(C)c3)nc3ccc(Cl)cc23)cc1 | 7.35 | 7.58 | 3.58 | – |
| C=CC(=O)Nc1cc(Nc2nccc(-c3cn(C)c4ccccc34)n2)c(OC)cc1N(C)CCN(C)C [OSIMERTINIB] | 4 | 0.015 | 1.16 | Activity [2]: 2.86%; Activity [3]: 1.22%; Activity [11]: 19.6%; Activity [12]: 20.6%; inhibition (Mus musculus [6]): Active; inhibition (Mus musculus [7]): inactive; inhibition (Mus musculus [8]): Active; Activity [9]: inactive; Activity [13]: Active |
| C=CC(=O)Nc1cccc(Nc2nc(Nc3cnn(C)c3)nc3ccc(Br)cc23)c1 | 2.35 | 1.1 | 1.64 | – |
| C=CC(=O)Nc1cccc(Nc2nc(Nc3cnn(C4CCN(C)CC4)c3)nc3ccc(Cl)cc23)c1 | 4.53 | 2.35 | 5.26 | – |
| C=CC(=O)Nc1cccc(Nc2nc(Nc3cn(C)nc3C(F)(F)F)nc3ccc(Cl)cc23)c1 | 3.36 | 1.02 | 5.72 | – |
| C=CC(=O)Nc1cccc(Nc2nc(Nc3cn[nH]c3)nc3ccc(Cl)cc23)c1 | 4.68 | 2.56 | 5.37 | – |
| C=CC(=O)Nc1cccc(Nc2nc(Nc3cnn(Cc4ccccc4)c3)nc3ccc(Cl)cc23)c1 | 3.83 | 3.98 | 1.3 | – |
